Data on 27 molecules can be found in US8883782B2, “Spiro-tetracyclic ring compounds as beta-secretase modulators and methods of use” (Amgen Inc., priority 2010, dated 2014).

Like-named read-outs stand apart in the source and are kept apart here.

Assay [1] deals with Beta Secretase enzyme (BACE) (Homo sapiens, UniProt P56817). Briefly: In vitro enzymatic BACE FRET (fluorescence resonance energy transfer) assay. In kind it is biochemical. The following applies: average IC50, enzyme assay; read-out: BACE 1 FRET assay. The gist of the method:
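Acetate buffer (0.05 M, pH 4.2), 10% DMSO final, 100 uM nonionic detergent genapol. Substrate addition (50 nM FRET peptide) initiates; one-hour incubation; Tris raises pH to neutrality before fluorescence measurement.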

The subject of assay [2] is Aβ40 in conditioned medium of cells stably expressing Amyloid Precursor Protein (APP). Briefly: In vitro BACE cell-based assay (Aβ40 in conditioned medium, sandwich ELISA). The following applies: Homo sapiens, read-out: HEK cell assay. The gist of the method: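 Step two: 10-point compound titration added, starting 100 μM or 10 μM, 0.1% DMSO. Step three: medium Aβ40 measured by ELISA, capture 3 h and detection 2 h at 4° C, TRF read.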

[3] abbreviates: HEK293, average IC50, HEK cells.

Chain of Beta Secretase enzyme (BACE) (P56817 46-501, species assumed): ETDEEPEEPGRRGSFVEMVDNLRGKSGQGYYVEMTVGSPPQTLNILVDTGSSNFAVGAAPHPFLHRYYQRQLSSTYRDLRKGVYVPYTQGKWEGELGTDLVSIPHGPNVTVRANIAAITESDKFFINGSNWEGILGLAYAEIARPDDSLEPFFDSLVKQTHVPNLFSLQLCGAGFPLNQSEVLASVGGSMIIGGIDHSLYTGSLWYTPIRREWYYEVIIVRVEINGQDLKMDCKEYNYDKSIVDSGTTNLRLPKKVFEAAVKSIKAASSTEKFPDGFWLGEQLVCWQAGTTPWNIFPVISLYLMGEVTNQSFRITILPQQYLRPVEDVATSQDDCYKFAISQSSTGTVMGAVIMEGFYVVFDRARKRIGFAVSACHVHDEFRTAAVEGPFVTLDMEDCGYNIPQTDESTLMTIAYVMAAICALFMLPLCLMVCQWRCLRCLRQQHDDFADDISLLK

`C[C@@H]1CN(c2cc(F)c3c(c2)[C@]2(COC(N)=N2)c2cc(-c4cncc(C#N)c4)ccc2O3)C[C@H](C)O1` [Example 560, 5-((4S)-2-amino-7′-((2R,6S)-2,6-dimethyl-4-morpholinyl)-5′-fluorospiro[1,3-oxazole-4,9′-xanthen]-2′-yl)-3-pyridinecarbonitrile]: the IC50 in assay [1] was found to be 2.8 nM; in assay [2] (setting [3]), 14.2 nM.
Regarding `CC#Cc1cncc(-c2ccc3c(c2)[C@@]2(COC(N)=N2)c2cc(N4CCOCC4)cc(F)c2O3)c1` [Example 952, (4S)-4′-fluoro-2′-(4-morpholinyl)-7′-(5-(1-propyn-1-yl)-3-pyridinyl)spiro[1,3-oxazole-4,9′-xanthen]-2-amine], the values for the IC50 in assay [1] and in assay [2] (setting [3]) were 0.6 nM and 4 nM, respectively.
Taken in the same sequence, the figures for `NC1=N[C@@]2(CS1)c1cc(-c3cccnc3F)ccc1Oc1cnc([C@H]3CCCOC3)cc12` [Example 932, (5S)-7-(2-fluoro-3-pyridinyl)-3-((3R)-tetrahydro-2H-pyran-3-yl)spiro[chromeno[2,3-c]pyridine-5,4′-[1,3]thiazol]-2′-amine] were 16.2 nM and 208 nM.
With `NC1=N[C@@]2(CS1)c1cc(-c3cccnc3F)ccc1Oc1c2cc(C2=CCCCO2)nc1F` [Example 1026, (5S)-3-(3,4-dihydro-2H-pyran-6-yl)-1-fluoro-7-(2-fluoro-3-pyridinyl)spiro[chromeno[2,3-c]pyridine-5,4′-[1,3]thiazol]-2′-amine], the IC50 in assay [1] came out at 0.2 nM; in assay [2] (HEK293, average IC50), 11 nM.
`CC1(C#Cc2cnc3c(c2)[C@]2(COC(N)=N2)c2cc(OCc4ccccc4)ccc2O3)COC1` [Example 973, (5S)-7-(benzyloxy)-3-((3-methyl-3-oxetanyl)ethynyl)spiro[chromeno[2,3-b]pyridine-5,4′-[1,3]oxazol]-2′-amine]: the IC50 in assay [1] came to 187 nM; in assay [2] (HEK293, average IC50), 1370 nM.
Take `COc1cncc(-c2ccc3c(c2)[C@@]2(COC(N)=N2)c2cc(OCC4(C)COC4)c(F)cc2O3)c1` [Example 329, (4S)-3′-fluoro-7′-(5-methoxy-3-pyridinyl)-2′-((3-methyl-3-oxetanyl)methoxy)spiro[1,3-oxazole-4,9′-xanthen]-2-amine]: the IC50 in assay [1] worked out at 8.9 nM; in assay [2] (HEK293, average IC50), 52.5 nM.
As to `Cc1ncccc1-c1ccc2c(c1)[C@@]1(COC(N)=N1)c1cc(-c3ccnc(F)c3)ncc1O2` [Example 248, (5S)-3-(2-fluoro-4-pyridinyl)-7-(2-methyl-3-pyridinyl)spiro[chromeno[2,3-c]pyridine-5,4′-[1,3]oxazol]-2′-amine], the IC50 in assay [1] is 99.1 nM; in assay [2] (HEK293, average IC50), 191 nM.
On to `NC1=N[C@@]2(CS1)c1cc(-c3cccnc3F)ccc1Oc1cnc(N3CCC(F)(F)C3)cc12` (single isomer, unassigned) [Example 704], for which the results for the IC50 in assay [1] and in assay [2] (setting [3]) were 0.3 nM and 12 nM, respectively.
With `COc1cncc(-c2ccc3c(c2)[C@@]2(COC(N)=N2)c2cc(C4CCOCC4)cc(F)c2O3)c1` [Example 937, (4S)-4′-fluoro-7′-(5-methoxy-3-pyridinyl)-2′-(tetrahydro-2H-pyran-4-yl)spiro[1,3-oxazole-4,9′-xanthen]-2-amine], the results for the IC50 in assay [1] and in assay [2] (setting [3]) were 1.7 nM and 28 nM, respectively.
With `CC1(C#Cc2cnc3c(c2)[C@]2(CSC(N)=N2)c2cc(-c4ccc(F)c(C#N)c4)ccc2O3)COC1` [Example 785, 5-((5S)-2′-amino-3-((3-methyl-3-oxetanyl)ethynyl)spiro[chromeno[2,3-b]pyridine-5,4′-[1,3]thiazol]-7-yl)-2-fluorobenzonitrile], the IC50 in assay [1] was 1.6 nM; in assay [2] (HEK293, average IC50), 13 nM.
Take `COc1ccc2c(c1)[C@@]1(COC(N)=N1)c1cc(C3(F)COC3)cc(F)c1O2` [Example 709, (S)-4′-fluoro-2′-(3-fluorooxetan-3-yl)-7′-methoxy-5H-spiro[oxazole-4,9′-xanthen]-2-amine]: the IC50 is 4560 nM in assay [1] and not below 10000 nM in assay [2] (setting [3]).
The like results for `NC1=N[C@@]2(CO1)c1cc(O)ccc1Oc1ncc(C3=CCOCC3)cc12` [Example 969, (5S)-2′-amino-3-(3,6-dihydro-2H-pyran-4-yl)spiro[chromeno[2,3-b]pyridine-5,4′-[1,3]oxazol]-7-ol] were, in that order, 835 nM and not below 10000 nM.
As to `CC1(C#Cc2cc3c(cn2)Oc2ccc(-c4cncc(F)c4)cc2[C@@]32COC(N)=N2)COC1` [Example 153, (5S)-7-(5-fluoro-3-pyridinyl)-3-((3-methyl-3-oxetanyl)ethynyl)spiro[chromeno[2,3-c]pyridine-5,4′-[1,3]oxazol]-2′-amine], the IC50 came to 9.2 nM in assay [1] and 46.2 nM in assay [2] (HEK293, average IC50).
With `NC1=N[C@@]2(CO1)c1cc(-c3cccnc3F)ccc1Oc1c(F)cc(-c3ccncc3)cc12` [Example 203, (4S)-4′-fluoro-7′-(2-fluoro-3-pyridinyl)-2′-(4-pyridinyl)spiro[1,3-oxazole-4,9′-xanthen]-2-amine], the IC50 worked out at 1.1 nM in assay [1] and 7.7 nM in assay [2] (HEK293, average IC50).
Consider `CC1(C)C=C(c2cnc3c(c2)[C@]2(COC(N)=N2)c2c(ccc(-c4cncnc4)c2F)O3)CCO1` [Example 352, (5R)-3-(6,6-dimethyl-3,6-dihydro-2H-pyran-4-yl)-6-fluoro-7-(5-pyrimidinyl)spiro[chromeno[2,3-b]pyridine-5,4′-[1,3]oxazol]-2′-amine], for which the IC50 in assay [1] came out at 2.8 nM; in assay [2] (HEK293, average IC50) it was 19.4 nM.
Regarding `Cc1cc(-c2ccc3c(c2)[C@@]2(COC(N)=N2)c2cc(C4=CCOCC4)cnc2O3)cnc1F` [Example 467, (5S)-3-(3,6-dihydro-2H-pyran-4-yl)-7-(6-fluoro-5-methyl-3-pyridinyl)spiro[chromeno[2,3-b]pyridine-5,4′-[1,3]oxazol]-2′-amine], the IC50 was 20.8 nM in assay [1] and 50.8 nM in assay [2] (setting [3]).
On to `Cc1ccc(-c2ccc3c(c2)[C@@]2(COC(N)=N2)c2cc(-c4ccnc(F)c4)ncc2O3)c(F)n1` [Example 254, (5S)-7-(2-fluoro-6-methyl-3-pyridinyl)-3-(2-fluoro-4-pyridinyl)spiro[chromeno[2,3-c]pyridine-5,4′-[1,3]oxazol]-2′-amine], for which the IC50 turned out to be 54.5 nM in assay [1] and 1070 nM in assay [2] (HEK293, average IC50).
`COc1cc(F)c2c(c1)C1(COC(N)=N1)c1cc(Br)c(F)cc1O2` (stereo not drawn) [Example 521, 2′-bromo-3′,5′-difluoro-7′-methoxyspiro[1,3-oxazole-4,9′-xanthen]-2-amine]: the IC50 was determined as 7240 nM in assay [1] and 10000 nM in assay [2] (setting [3]).
`NC1=N[C@@]2(CO1)c1cc(-c3cc(C4=CCOCC4)cnc3F)ccc1Oc1cnc(C3=CCOCC3)cc12` [Example 362, (5S)-3-(3,6-dihydro-2H-pyran-4-yl)-7-(5-(3,6-dihydro-2H-pyran-4-yl)-2-fluoro-3-pyridinyl)spiro[chromeno[2,3-c]pyridine-5,4′-[1,3]oxazol]-2′-amine]: the IC50 in assay [1] is 6.3 nM; in assay [2] (HEK293, average IC50), 114 nM.
Take `NC1=N[C@@]2(CO1)c1cc(-c3cccc(Cl)c3)ccc1Oc1ncc(C3=CCCOC3)cc12` [Example 173, (5S)-7-(3-chlorophenyl)-3-(5,6-dihydro-2H-pyran-3-yl)spiro[chromeno[2,3-b]pyridine-5,4′-[1,3]oxazol]-2′-amine]: the IC50 in assay [1] was found to be 0.6 nM; in assay [2] (HEK293, average IC50), 5 nM.
As to `CC#Cc1cncc(-c2ccc3c(c2)[C@@]2(COC(N)=N2)c2cc(-c4ncccn4)ncc2O3)c1` [Example 936, (5S)-7-(5-(1-propyn-1-yl)-3-pyridinyl)-3-(2-pyrimidinyl)spiro[chromeno[2,3-c]pyridine-5,4′-[1,3]oxazol]-2′-amine], the IC50 in assay [1] was determined as 3 nM; in assay [2] (setting [3]), 28 nM.
Turning to `CC1(C)C=C(c2cnc3c(c2)[C@]2(COC(N)=N2)c2c(ccc(-c4cccnc4F)c2F)O3)CCO1` [Example 348, (5R)-3-(6,6-dimethyl-3,6-dihydro-2H-pyran-4-yl)-6-fluoro-7-(2-fluoro-3-pyridinyl)spiro[chromeno[2,3-b]pyridine-5,4′-[1,3]oxazol]-2′-amine], the IC50 was 0.8 nM in assay [1] and 8.8 nM in assay [2] (HEK293, average IC50).
As for `CC(C)(C)C#Cc1ccc2c(c1)[C@]1(COC(N)=N1)c1cc(-c3cncnc3)c(F)cc1O2` [Example 497, (4R)-7′-(3,3-dimethyl-1-butyn-1-yl)-3′-fluoro-2′-(5-pyrimidinyl)spiro[1,3-oxazole-4,9′-xanthen]-2-amine], the IC50 in assay [1] is 2.5 nM; in assay [2] (setting [3]), 37.2 nM.
For `NC1=N[C@]2(CS1)c1cc(-c3cccnc3F)ccc1Oc1cnc(-c3ccnc(F)c3)cc12` [Example 992, (5R)-7-(2-fluoro-3-pyridinyl)-3-(2-fluoro-4-pyridinyl)spiro[chromeno[2,3-c]pyridine-5,4′-[1,3]thiazol]-2′-amine], the IC50 in assay [1] came to 42.5 nM; in assay [2] (HEK293, average IC50), 1830 nM.
Take `CC#Cc1cncc(-c2ccc3c(c2)[C@@]2(COC(N)=N2)c2cc(Cl)nc(N4CCC(F)(F)C4)c2O3)c1` [Example 925, (5S)-3-chloro-1-(3,3-difluoro-1-pyrrolidinyl)-7-(5-(1-propyn-1-yl)-3-pyridinyl)spiro[chromeno[2,3-c]pyridine-5,4′-[1,3]oxazol]-2′-amine]: the IC50 came out at 24.6 nM in assay [1] and 547 nM in assay [2] (setting [3]).
On to `COc1nc(N2CCC(F)(F)CC2)cc2c1Oc1ccc(-c3cccnc3F)cc1[C@@]21COC(N)=N1` [Example 849, (5S)-3-(4,4-difluoro-1-piperidinyl)-7-(2-fluoro-3-pyridinyl)-1-methoxyspiro[chromeno[2,3-c]pyridine-5,4′-[1,3]oxazol]-2′-amine], for which the values for the IC50 in assay [1] and in assay [2] (setting [3]) were 4.2 nM and 78 nM, respectively.
The like results for `CC(C)(C)COc1ccc2c(c1)[C@]1(COC(N)=N1)c1c(ccc(-c3cncnc3)c1F)O2` [Example 515, (4R)-7′-(2,2-dimethylpropoxy)-1′-fluoro-2′-(5-pyrimidinyl)spiro[1,3-oxazole-4,9′-xanthen]-2-amine] were, in that order, 1.3 nM and 28.5 nM.
